Here are results for nine molecules from patent US8697127B2, “Method for preparing microspheres and microspheres produced thereby” (Ewha University-Industry Collaboration Foundation, priority 2008, dated 2014).

Data set [1] in a line: Aripiprazole encapsulation ratio of PLGA microparticles (HPLC). The format is physicochemical. To be noted: PLGA 4A/0.25 g; 60 mg of aripiprazole; Ethyl formate; 5 mL of 8 M NaOH. The procedure: (§1) 0.25 g of 4A was dissolved in 4 mL of ethyl formate. Then, 60 mg of aripiprazole was dissolved to prepare a dispersed phase. The solution was added to 40 mL of 0.5% PVA aqueous solution and stirred. After adding 5 mL of 8 M NaOH to the resultant o/w emulsion, followed by reaction for 30 minutes, 40 mL of distilled water was further added and, after stirring, microparticles were recovered by filtration. The microparticles were redispersed in 16 mL of 0.5% PVA aqueous solution. After adding distilled water to make 80 mL, the solution was stirred. After filtration, the microparticles were dried overnight in a vacuum dryer.
Some of the microparticles including aripiprazole were accurately weighed and dissolved in 4 mL of tetrahydrofuran. After diluting 6 times with ethanol, the solution was filtered to remove the PLGA precipitate. Some of the filtrate (20 μl) was subjected to HPLC (Shimadzu LC-20AD) for measurement of aripiprazole concentration. Drug encapsulation ratio (%) was calculated using the equations given in Example <7-2>.

Data set [2] is described as follows: Encapsulation ratio of docetaxel, piroxicam, rivastigmine or tolterodine in PLGA microparticles (HPLC). Particulars: 0.25 g of 7E, 5 mL of 7 M NaOH. In kind it is physicochemical. As to the method:
Then, 0.25 g of 7E was dissolved to prepare a dispersed phase. The solution was added to 40 mL of 0.5% PVA aqueous solution and stirred. After adding 5 mL of 7 M NaOH to the resultant o/w emulsion, followed by reaction for 30 minutes, 40 mL of distilled water was further added and, after stirring, microparticles were recovered by filtration. The microparticles were redispersed in 16 mL of 0.5% PVA aqueous solution. After adding distilled water to make 80 mL, the solution was stirred. […] After diluting 6 times with ethanol, the solution was filtered to remove the PLGA precipitate.

For data set [3] the following is noted: background statement on organic solvents; cited from earlier work.
Data set [4] is described as follows: Progesterone encapsulation ratio of PLGA microparticles (HPLC). In kind it is physicochemical. The procedure:
0.25 g of 7E or 4A was dissolved in 4 mL of ethyl acetate. […] After stirring and filtration, microparticles were recovered. The microparticles were redispersed in 16 mL of 0.5% PVA solution and stirred, after adding distilled water to make 80 mL. […] Similarly, microparticles encapsulating progesterone were prepared using ethyl formate instead of ethyl acetate and using 6 mL of 10 M NaOH or 5 mL of 10 M HCl as a decomposition reagent. Some of the microparticles prepared in Example <7-1> were accurately weighed and dissolved in 4 mL of tetrahydrofuran. After diluting 6 times with methanol, the solution was filtered to remove the PLGA precipitate. Some of the filtrate (20 μl) was subjected to HPLC (Shimadzu LC-20AD, Luna 5 m C18(2) column) for measurement of progesterone concentration. Theoretical drug load (%) and actual drug load (%) were calculated from the following equations, and their ratio was defined as drug encapsulation ratio (%). Theoretical drug load (%)=(Weight of drug used (mg)/[Weight of PLGA used (mg)+Weight of drug used (mg)])×100 Actual drug load (%)=(Weight of drug encapsulated in microparticles (mg)/Weight of microparticles used for encapsulation ratio measurement (mg))×100 Drug encapsulation ratio (%)=(Actual drug load (%)/Theoretical drug load (%))×100 0.25 g of 7E was dissolved in 4 mL of isopropyl formate or propyl formate. […] After stirring and filtration, microparticles were recovered. The microparticles were redispersed in 16 mL of 0.5% PVA solution and stirred, after adding distilled water to make 80 mL. After filtration, the microparticles were in a vacuum dryer.

Data set [5] is described as follows: Thermogravimetric analysis of microparticles. Particulars: up to 150° C.; isopropyl formate, 0.25 g of 7E and 250 mg of progesterone; 10° C./min, nitrogen. The format is physicochemical. As to the method:
The microparticles prepared in Example <7-3> (using isopropyl formate, 0.25 g of 7E and 250 mg of progesterone) and microparticles not including progesterone were analyzed using a thermogravimetric analyzer (TGA 2050). Nitrogen was used as a purge gas. Change in weight of the microparticles was automatically recorded while increasing temperature at a rate of 10° C./min.

Data set [6] is described as follows: Risperidone encapsulation ratio of PLGA microparticles (HPLC). Particulars: PLGA 4A/0.25 g; 60 mg of risperidone; Ethyl formate; 5 mL of 8 M NaOH. In kind it is physicochemical. The procedure: as §1, with “risperidone” for “aripiprazole”
Some of the microparticles including risperidone were accurately weighed and dissolved in 4 mL of tetrahydrofuran. After diluting 6 times with ethanol, the solution was filtered to remove the PLGA precipitate. Some of the filtrate (20 μl) was subjected to HPLC (Shimadzu LC-20AD) for measurement of risperidone concentration. Drug encapsulation ratio (%) was calculated using the equations given in Example <7-2>.

The mark [7] stands for this setting: 50 mg of docetaxel, Ethyl acetate.
[8] abbreviates: 50 mg of piroxicam, Ethyl formate.
[9] abbreviates: PLGA 4A/0.25 g, progesterone 60 mg, 10M NaOH 5 mL, ethyl acetate.
[10] abbreviates: PLGA 4A/0.25 g, progesterone 60 mg, 10M NaOH 6 mL, ethyl formate.
[11] abbreviates: PLGA 4A/0.25 g, progesterone 250 mg, 10M NaOH 5 mL, ethyl acetate.
Setting [12] is: PLGA 4A/0.25 g, progesterone 250 mg, 10M NaOH 6 mL, ethyl formate.
The mark [13] stands for this setting: PLGA 7E/0.25 g, progesterone 60 mg, 10M HCl 5 mL, ethyl formate.
[14] abbreviates: PLGA 7E/0.25 g, progesterone 60 mg, 10M NaOH 5 mL, ethyl acetate.
Where [15] appears, read: PLGA 7E/0.25 g, progesterone 60 mg, 10M NaOH 6 mL, ethyl formate.
Where [16] appears, read: PLGA 7E/0.25 g, progesterone 100 mg, 10M HCl 5 mL, ethyl formate.
[17] abbreviates: PLGA 7E/0.25 g, progesterone 160 mg, 10M HCl 5 mL, ethyl formate.
Where [18] appears, read: PLGA 7E/0.25 g, progesterone 200 mg, 10M HCl 5 mL, ethyl formate.
[19] abbreviates: PLGA 7E/0.25 g, progesterone 250 mg, 10M HCl 5 mL, ethyl formate.
Where [20] appears, read: PLGA 7E/0.25 g, progesterone 250 mg, 10M NaOH 5 mL, ethyl acetate.
Where [21] appears, read: PLGA 7E/0.25 g, progesterone 250 mg, 10M NaOH 6 mL, ethyl formate.
[22] abbreviates: 40 μl of rivastigmine, Ethyl acetate (table).
The mark [23] stands for this setting: 40 mg of tolterodine, Ethyl formate.

Consider `O=C1CCc2ccc(OCCCCN3CCN(c4cccc(Cl)c4Cl)CC3)cc2N1` [aripiprazole], for which, in data set [1], the “Average encapsulation ratio of 3 batches” value came out at 72.3±2.0%, the “Encapsulation ratio (%) Batch 1” value was 72.2%, the “Encapsulation ratio (%) Batch 2” value is 74.3% and the “Encapsulation ratio (%) Batch 3” value is on record as 70.3%.
As for `CC(=O)O[C@@]12CO[C@@H]1C[C@H](O)[C@@]1(C)C(=O)[C@H](O)C3=C(C)[C@@H](OC(=O)[C@H](O)[C@@H](NC(=O)OC(C)(C)C)c4ccccc4)C[C@@](O)([C@@H](OC(=O)c4ccccc4)[C@H]21)C3(C)C` [docetaxel], in data set [2] (setting [7]), the “Encapsulation ratio (%) Batch 1” value turned out to be 83.2%, the “Encapsulation ratio (%) Batch 2” value worked out at 80.2% and the “Encapsulation ratio (%) Batch 3” value stood at 84.2%.
Consider `CCOC(C)=O` [ethyl acetate], for which the water solubility in data set [3] is given as 8.7 % by weight.
With `ClCCl` [methylene chloride], the water solubility in data set [3] is on record as 1.32 % by weight.
In the case of `CN1C(C(=O)Nc2ccccn2)=C(O)c2ccccc2S1(=O)=O` [piroxicam], in data set [2] (setting [8]), the “Encapsulation ratio (%) Batch 1” value was found to be 76.2%, the “Encapsulation ratio (%) Batch 2” value worked out at 81.2% and the “Encapsulation ratio (%) Batch 3” value was 79.2%.
On to `CC(=O)[C@H]1CC[C@H]2[C@@H]3CCC4=CC(=O)CC[C@]4(C)[C@H]3CC[C@]12C` [progesterone], for which the “Encapsulation ratio (%) Batch 1” value worked out at 90.5% in data set [4] (setting [9]); 92.0% in data set [4] (setting [10]); 93.2% in data set [4] (setting [11]); 96.2% in data set [4] (setting [12]); 84.1% in data set [4] (setting [13]); 93.8% in data set [4] (setting [14]). In addition, the “Encapsulation ratio (%) Batch 1” value in data set [4] (setting [15]) is on record as 93.9%; in data set [4] (setting [16]) it was 89.0%; in data set [4] (setting [17]), 98.9%; in data set [4] (setting [18]), 99.2%; in data set [4] (setting [19]), 101.0%; in data set [4] (setting [20]) it was 92.8%. The “Encapsulation ratio (%) Batch 1” value in data set [4] (setting [21]) is on record as 95.5%. In addition, the “Encapsulation ratio (%) Batch 2” value in data set [4] (setting [9]) is 92.8%; in data set [4] (setting [10]) it was 93.3%; in data set [4] (setting [11]), 92.2%; in data set [4] (setting [12]), 93.2%; in data set [4] (setting [13]), 88.7%; in data set [4] (setting [14]) it was 92.3%. Further, the “Encapsulation ratio (%) Batch 2” value in data set [4] (setting [15]) turned out to be 94.0%; in data set [4] (setting [16]), 92.8%; in data set [4] (setting [17]) it was 102.0%; in data set [4] (setting [18]), 102.0%; in data set [4] (setting [19]) it was 101.0%; in data set [4] (setting [20]), 92.0%. The “Encapsulation ratio (%) Batch 2” value in data set [4] (setting [21]) is on record as 98.5%. Besides, the “Encapsulation ratio (%) Batch 3” value is on record as 95.3% in data set [4] (setting [9]); 95.6% in data set [4] (setting [10]); 98.5% in data set [4] (setting [11]); 100.7% in data set [4] (setting [12]); 86.1% in data set [4] (setting [13]); 96.0% in data set [4] (setting [14]). The “Encapsulation ratio (%) Batch 3” value was found to be 91.6% in data set [4] (setting [15]); 91.5% in data set [4] (setting [16]); 96.9% in data set [4] (setting [17]); 95.5% in data set [4] (setting [18]); 99.6% in data set [4] (setting [19]); 97.7% in data set [4] (setting [20]). Moreover, the “Encapsulation ratio (%) Batch 3” value in data set [4] (setting [21]) is 99.7%. Besides, in data set [5], the “weight loss of the microparticles” value was determined as 0.75%.
As to `Cc1nc2n(c(=O)c1CCN1CCC(c3noc4cc(F)ccc34)CC1)CCCC2` [risperidone], in data set [6], the “Average encapsulation ratio of 3 batches” value is 75.0±1.4%, the “Encapsulation ratio (%) Batch 1” value turned out to be 75.2%, the “Encapsulation ratio (%) Batch 2” value was found to be 73.6% and the “Encapsulation ratio (%) Batch 3” value was 76.3%.
As to `CCN(C)C(=O)Oc1cccc([C@H](C)N(C)C)c1` [rivastigmine], in data set [2] (setting [22]), the “Encapsulation ratio (%) Batch 1” value is 74.2%, the “Encapsulation ratio (%) Batch 2” value is recorded as 79.2% and the “Encapsulation ratio (%) Batch 3” value amounted to 78.1%.
Turning to `Cc1ccc(O)c([C@H](CCN(C(C)C)C(C)C)c2ccccc2)c1` [tolterodine], in data set [2] (setting [23]), the “Encapsulation ratio (%) Batch 1” value is on record as 70.3%, the “Encapsulation ratio (%) Batch 2” value was 77.3% and the “Encapsulation ratio (%) Batch 3” value worked out at 73.2%.
